In patent US20220370416A1, “COMPOUNDS AND METHODS FOR TARGETED DEGRADATION OF KRAS” (Arvinas Operations, Inc., priority 2020, published 2022):

Columns and labels:
HiBit-KRAS^G12C [1] = biological target: T1, HiBit-KRAS^G12C (Homo sapiens, UniProt P01116, G12C); test: HiBit degradation assay in MiaPaCa-2 HiBit-KRas^G12C cells; type: cell-based; details: 24 hours; for Dmax: maximum degradation
Procedure, shortened: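 MiaPaCa-2 cells with CRISPR N-terminal HiBit knock-in on one endogenous KRAS^G12C allele, treated 24 hours at 37° C with compound titrated 10 μM to 20 nM (0.1% or 0.5% DMSO). Lytic HiBit luminescence normalized to DMSO, 4-parameter fit giving DC50 and Dmax; points cytotoxic to […] cells by alamar blue excluded.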

HiBit-KRAS^G12C [2] = biological target: T1, HiBit-KRAS^G12C; test: HiBit degradation assay in SW1573 HiBit-KRas^G12C cells; type: cell-based; set-up: expressed in transfected cells; host or cells: SW1573 (clone E6), modified pcDNA3.1 vector, TK promoter; details: 24 hours
Procedure, shortened: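 SW1573 cells stably expressing N-terminally HiBit-tagged KRAS G12C, under the TK promoter, were treated 24 h at 37 °C with 10 μM to 20 nM compound in 0.1% or 0.5% DMSO. Residual HiBit luminescence normalised to DMSO and fitted with a 4-parameter model for DC50 and Dmax. Points with ≥50% viability loss (alamar blue) excluded.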

[3] = MIA PaCa-2, MiaPaCa-2 HiBit-KRas^G12C cells, 0.5% DMSO, read-out: KRas^G12C-HiBiT (MiaPaCa; 0.5% DMSO) DMax
[4] = read-out: KRas^G12C-HiBiT (MiaPaCa; 0.1% DMSO) IC50, MiaPaCa-2 HiBit-KRas^G12C cells, 0.1% DMSO
[5] = SW1573, SW1573 HiBit-KRas^G12C, 0.1% DMSO, read-out: KRas^G12C-HiBit (SW1573; 0.1% DMSO) Dmax**
[6] = SW1573, SW1573 HiBit-KRas^G12C, 0.5% DMSO, read-out: KRas^G12C-HiBiT (SW1573; 0.5% DMSO) Dmax**
[7] = SW1573 HiBit-KRas^G12C, 0.1% DMSO, read-out: KRas^G12C-HIBit (SW1573; 0.1% DMSO) DC50*
[8] = MIA PaCa-2, MiaPaCa-2 HiBit-KRas^G12C cells, 0.1% DMSO, read-out: KRas^G12C-HiBiT (MiaPaCa; 0.1% DMSO) DMax

T1 sequence (P01116 1-186 isoform P01116-2 G12C limits assumed): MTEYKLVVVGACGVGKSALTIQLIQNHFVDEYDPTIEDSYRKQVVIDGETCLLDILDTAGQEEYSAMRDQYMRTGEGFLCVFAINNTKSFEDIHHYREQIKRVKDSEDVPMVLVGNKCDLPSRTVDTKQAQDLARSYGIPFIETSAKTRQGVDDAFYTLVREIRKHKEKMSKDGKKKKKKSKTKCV

| Dmax (HiBit-KRAS^G12C [1]; [3]) | DC50 (HiBit-KRAS^G12C [1]; [4]) | Dmax (HiBit-KRAS^G12C [2]; [5]) | Dmax (HiBit-KRAS^G12C [2]; [6]) | DC50 (HiBit-KRAS^G12C [2]; [7]) | DC50 (HiBit-KRAS^G12C [1]; read-out: KRas^G12C-HiBiT (MiaPaCa; 0.5% DMSO) IC50, MiaPaCa-2 HiBit-KRas^G12C cells, 0.5% DMSO) | DC50 (HiBit-KRAS^G12C [2]; read-out: KRas^G12C-HiBiT (SW1573; 0.5% DMSO) IC50***, SW1573 HiBit-KRas^G12C, 0.5% DMSO) | SMILES | Dmax (HiBit-KRAS^G12C [1]; MIA PaCa-2, read-out: KRas^G12C-HiBiT (MiaPaCa; 0.1% DMSO) DMax, MiaPaCa-2 HiBit-KRas^G12C cells, 0.1% DMSO) | Dmax (HiBit-KRAS^G12C [2]; SW1573, read-out: KRas^G12C-HiBit (SW1573; 0.1% DMSO) Dmax**, SW1573 HiBit-KRas^G12C, 0.1% DMSO) | Dmax (HiBit-KRAS^G12C [1]; [8]) |
| --- | --- | --- | --- | --- | --- | --- | --- | --- | --- | --- |
| < 35% | > 1000 nM | < 35% | 35 to 70% | 100 to 1000 nM |  |  | C=CC(=O)N1CCN(c2nc(OCCN3CCC(OCCOCCOCC(=O)N[C@H](C(=O)N4C[C@H](O)C[C@H]4C(=O)N[C@@H](C)c4ccc(-c5scnc5C)cc4)C(C)(C)C)CC3)nc3c(F)c(-c4cc(O)cc5ccccc45)c(Cl)cc23)CC1 [Compound 60, (2S,4R)-1-[(2S)-2-{2-[2-(2-{[1-(2-{[6-chloro-8-fluoro-7-(3-hydroxynaphthalen-1-yl)-4-[4-(prop-2-enoyl)piperazin-1-yl]quinazolin-2-yl]oxy}ethyl)piperidin-4-yl]oxy}ethoxy)ethoxy]acetamido}-3,3-dimethylbutanoyl]-4-hydroxy-N-[(1S)-1-[4-(4-methyl-1,3-thiazol-5-yl)phenyl]ethyl]pyrrolidine-2-carboxamide] |  |  |  |
| 35 to 70% |  | 35 to 70% | 35 to 70% | 100 to 1000 nM |  |  | C=CC(=O)N1CCN(c2nc(OCCN3CCC(CCOCC(=O)N[C@H](C(=O)N4C[C@H](O)C[C@H]4C(=O)N[C@@H](C)c4ccc(-c5scnc5C)cc4)C(C)(C)C)CC3)nc3c(F)c(-c4cc(O)cc5ccccc45)c(Cl)cc23)CC1 [Compound 64, (2S,4R)-1-[(2S)-2-(2-{2-[l-(2-{[6-chloro-8-fluoro-7-(3-hydroxynaphthalen-1-yl)-4-[4-(prop-2-enoyl)piperazin-1-yl]quinazolin-2-yl]oxy}ethyl)piperidin-4-yl]ethoxy}acetamido)-3,3-dimethylbutanoyl]-4-hydroxy-N-[(1S)-1-[4-(4-methyl-1,3-thiazol-5-yl)phenyl]ethyl]pyrrolidine-2-carboxamide] |  |  | < 35% |

More lines, now with the values behind:

| SMILES | Dmax (HiBit-KRAS^G12C [1]; [3]) | DC50 (HiBit-KRAS^G12C [1]; [4]) | Dmax (HiBit-KRAS^G12C [2]; [5]) | Dmax (HiBit-KRAS^G12C [2]; [6]) | DC50 (HiBit-KRAS^G12C [2]; [7]) | DC50 (HiBit-KRAS^G12C [1]; read-out: KRas^G12C-HiBiT (MiaPaCa; 0.5% DMSO) IC50, MiaPaCa-2 HiBit-KRas^G12C cells, 0.5% DMSO) | DC50 (HiBit-KRAS^G12C [2]; read-out: KRas^G12C-HiBiT (SW1573; 0.5% DMSO) IC50***, SW1573 HiBit-KRas^G12C, 0.5% DMSO) | Dmax (HiBit-KRAS^G12C [1]; MIA PaCa-2, read-out: KRas^G12C-HiBiT (MiaPaCa; 0.1% DMSO) DMax, MiaPaCa-2 HiBit-KRas^G12C cells, 0.1% DMSO) | Dmax (HiBit-KRAS^G12C [2]; SW1573, read-out: KRas^G12C-HiBit (SW1573; 0.1% DMSO) Dmax**, SW1573 HiBit-KRas^G12C, 0.1% DMSO) | Dmax (HiBit-KRAS^G12C [1]; [8]) |
| --- | --- | --- | --- | --- | --- | --- | --- | --- | --- | --- |
| C=CC(=O)N1CCN(c2nc(O[C@H](C)CN3CCC(OCCOCC(=O)N[C@H](C(=O)N4C[C@H](O)C[C@H]4C(=O)N[C@@H](C)c4ccc(-c5scnc5C)cc4)C(C)(C)C)CC3)nc3c(F)c(-c4c(O)cccc4F)c(Cl)cc23)CC1 [Compound 61, (2S,4R)-1-[(2S)-2-{2-[2-({1-[(2R)-2-{[6-chloro-8-fluoro-7-(2-fluoro-6-hydroxyphenyl)-4-[4-(prop-2-enoyl)piperazin-1-yl]quinazolin-2-yl]oxy}propyl]piperidin-4-yl}oxy)ethoxy]acetamido}-3,3-dimethylbutanoyl]-4-hydroxy-N-[(1S)-1-[4-(4-methyl-1,3-thiazol-5-yl)phenyl]ethyl]pyrrolidine-2-carboxamide] |  | > 1000 nM | < 35% | 35 to 70% | 100 to 1000 nM | > 1000 nM | > 1000 nM |  |  |  |
| C=CC(=O)N1CCN(c2nc(O[C@H](C)CN3CC(N4CCN(CC(=O)N[C@H](C(=O)N5C[C@H](O)C[C@H]5C(=O)N[C@@H](C)c5ccc(-c6scnc6C)cc5)C(C)(C)C)CC4)C3)nc3c(F)c(-c4cc(O)cc5ccccc45)c(Cl)cc23)CC1 [Compound 62, (2S,4R)-1-[(2S)-2-[2-(4-{1-[(2R)-2-{[6-chloro-8-fluoro-7-(3-hydroxynaphthalen-1-yl)-4-[4-(prop-2-enoyl)piperazin-1-yl]quinazolin-2-yl]oxy}propyl]azetidin-3-yl}piperazin-1-yl)acetamido]-3,3-dimethylbutanoyl]-4-hydroxy-N-[(1S)-1-[4-(4-methyl-1,3-thiazol-5-yl)phenyl]ethyl]pyrrolidine-2-carboxamide] |  |  |  |  | 100 to 1000 nM |  |  | < 35% | 35 to 70% |  |
| C=CC(=O)N1CCN(c2nc(OCCN3CCC(COCC(=O)N[C@H](C(=O)N4C[C@H](O)C[C@H]4C(=O)N[C@@H](C)c4ccc(-c5scnc5C)cc4)C(C)(C)C)CC3)nc3c(F)c(-c4cc(O)cc5ccccc45)c(Cl)cc23)CC1 [Compound 63, (2S,4R)-1-[(2S)-2-(2-{[1-(2-{[6-chloro-8-fluoro-7-(3-hydroxynaphthalen-1-yl)-4-[4-(prop-2-enoyl)piperazin-1-yl]quinazolin-2-yl]oxy}ethyl)piperidin-4-yl]methoxy}acetamido)-3,3-dimethylbutanoyl]-4-hydroxy-N-[(1S)-1-[4-(4-methyl-1,3-thiazol-5-yl)phenyl]ethyl]pyrrolidine-2-carboxamide] | 35 to 70% |  | 35 to 70% | > 70% | 100 to 1000 nM |  |  |  |  | 35 to 70% |
